Like-named read-outs stand apart in the source and are kept apart here.
Key:
Staphylococcus aureus = test: In vitro lysis of pathogenic bacteria (lytic peptide bioassay, colony count of survivors); type: cell-based; settings: clinical isolate, 37° C. for one hour; for # of Survivors: minus peptide control 50,000; for % of Control: survivors
Experimental: (§1) In this test, antibiotic resistant clinical isolates of Pseudomonas aeruginosa and Staphylococcus aureus were obtained. The lytic peptide bioassay was performed as described below.
(§2) A flask containing 49 ml of nutrient broth was inoculated with 1 ml of an overnight culture of the test bacteria. The culture was allowed to grow to mid-log phase at 37° C. with shaking (approximately 4 hours). When the cells reached the correct density, the cells were transferred to a sterile tube and centrifuged for 10 minutes at 3000 rpm. The pellet was resuspended in 3 ml of phosphate buffer and centrifuged for 10 minutes at 3000 rpm. The pellet was resuspended once again in sufficient (but measured) volume to calculate the absorbance of the suspension at 600 nm. Using the resulting absorbance and a previously constructed growth curve, the required dilution to achieve a concentration of 10^6 cells/ml was determined.
(§3) The test culture tubes for the bioassay contained 800 μl of phosphate buffer, pH 7.0, 100 μl of cells at 10^6 cells/ml and 100 μl of peptide solution (10 μM to 1 mM). The final concentration of peptide in the assay was from 1 μM to 100 μM. A reaction system minus peptide was included as a control. The tubes were incubated at 37° C. for one hour.
(§4) After the incubation period two 1:10 serial dilutions in phosphate buffer were made for each culture(three 1:10 serial dilutions for the control culture). […] of each dilution was spread on a nutrient agar plate, in duplicate and incubated overnight at 37° C. The following day, the number of colonies on the control plates was counted to determine the starting number of cells in the assay tubes. The number of cells surviving the assay in the presence of peptide was also counted.

Pseudomonas aeruginosa = type: cell-based; settings: clinical isolate, 37° C. for one hour; for # of Survivors: minus peptide control 100,000; for % of Control: survivors
Experimental: as §1, §2, §3, §4

“Ala Val Lys Arg Val Gly Arg Arg Leu Lys Lys Leu Ala Arg Lys Iso Ala Arg Leu Gly Val Ala Phe [SEQ ID NO. 14]” was tested, and the “# of Survivors” value (Staphylococcus aureus; peptide 1 μM) was 50,000, the “# of Survivors” value (Staphylococcus aureus; peptide 10 μM) was 2,299 and the “% of Control” value (Staphylococcus aureus; peptide 1 μM) was 100%. The “% of Control” value (Staphylococcus aureus; peptide 10 μM) was 4.6%, the “# of Survivors” value (Pseudomonas aeruginosa; peptide 1 μM) was 100,000 and the “# of Survivors” value (Pseudomonas aeruginosa; peptide 10 μM) was 2. The “% of Control” value (Pseudomonas aeruginosa; peptide 1 μM) was 100% and the “% of Control” value (Pseudomonas aeruginosa; peptide 10 μM) was 0.002%.
